Experimental data taken from article PMC12775823, “Glucosylceramide regulates depression through activating peroxisome proliferator-activated receptor gamma in dorsal striatum” (Theranostics, 2026).

Experiments:
[1] = molecular target: T1, human PPARγ-full length (Homo sapiens, UniProt P37231); experiment: Surface plasmon resonance, full-length hPPARγ; assay type: binding; settings: SPR, steady-state affinity, 25 °C; read-out: equilibrium dissociation constant (KD) for hPPARγ
T1 construct: human PPARγ-full length (Active Motif, USA); purchased Active Motif
T1 sequence (P37231 1-505): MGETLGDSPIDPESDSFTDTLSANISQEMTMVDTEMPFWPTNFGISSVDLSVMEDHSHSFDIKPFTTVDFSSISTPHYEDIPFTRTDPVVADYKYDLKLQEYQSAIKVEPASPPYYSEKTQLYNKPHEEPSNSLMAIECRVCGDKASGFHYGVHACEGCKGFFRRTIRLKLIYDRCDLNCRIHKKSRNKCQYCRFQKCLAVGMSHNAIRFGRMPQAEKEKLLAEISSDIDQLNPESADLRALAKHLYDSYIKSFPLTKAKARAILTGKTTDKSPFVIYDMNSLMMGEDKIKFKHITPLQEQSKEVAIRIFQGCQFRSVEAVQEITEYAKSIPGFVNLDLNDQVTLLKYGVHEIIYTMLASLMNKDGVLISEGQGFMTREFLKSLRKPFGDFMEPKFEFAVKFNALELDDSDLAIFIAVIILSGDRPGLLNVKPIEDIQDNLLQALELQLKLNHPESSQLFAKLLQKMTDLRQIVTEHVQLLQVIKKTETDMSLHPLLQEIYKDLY
Description: Prepared human PPARγ-LBD and human PPARγ-full length (Active Motif, USA) were immobilized onto a CM5 sensor chip using amine coupling. Briefly, the protein was diluted to 50 μg/mL in immobilization buffer and covalently attached to the CM5 chip via an Amine Coupling Kit (Cytiva, USA), following the manufacturer's instructions. A channel without immobilized protein was used as a blank control. The positive control, pioglitazone, and the test molecule, GlcCer, were both diluted in running buffer (PBS containing 5% (v/v) DMSO, 3 mM EDTA, and 0.05% (v/v) surfactant P20, pH 7.4). Gradient concentrations of GlcCer were injected over both channels at a flow rate of 30 μL/min, with an association time and dissociation time of 85 s each.

[2] = test system: PPARγ; experiment: PPRE-luciferase (dual-luciferase) activity assay in N2a cells; assay type: cell-based; settings: N2a cells transfected with wild-type Pparg
Description: N2a cells were seeded into 24-well plates and cultured for 24 hours before transfection. A DNA mixture containing the PPRE-luciferase reporter plasmid (0.5 μg), PPARγ/ PPARγ mutation plasmid (0.5 μg) and an internal control plasmid pRL-SV-40 (25 ng) was transfected using lipofectamine 3000 transfection reagent (L3000001, Invitrogen, USA) according to the manufacturer's recommendations. After transfection, the cells were incubated for an additional 48 h.

[3] = test system: PPARγ target genes; experiment: qRT-PCR of PPARγ target genes in PPARγ-overexpressing N2a cells; assay type: cell-based; settings: 0.1, 1 and 10 μM
[4] = test system: CRS-induced mice; experiment: Behavioral tests (OFT, EPMT, LDT, SPT, FST) in chronic restraint stress mice, intra-dorsal striatal infusion; assay type: in vivo
Description: For intracranial injection, mice were surgically implanted with sterilized guide cannulae in dorsal striatum. […] Mice were intraperitoneally injected with CNO (1 mg/kg/d) before behavioral test.
Chronic restraint stress (CRS). For the CRS protocol, male C57BL/6J mice (8-10 weeks old) were obtained from Charles River Laboratories (Beijing, China). Mice were individually placed into well-ventilated 50 mL conical restraint tube (suitable for mice weighing 20-25 g) with multiple holes for 4 h daily between 10:00 AM and 2:00 PM to minimize circadian rhythm variations. The restraint stress procedure was conducted for 14 consecutive days. Then, all behavioral test were performed between 10:00 AM and 18:00 PM.
Elevated plus maze test (EPMT).
Light-dark Transition test (LDT).
Sucrose preference test (SPT).
Forced swimming test (FST).

[5] = test system: aged mice; settings: oral administration, ref [35]; cited from earlier work
[6] = CRS mice, pioglitazone 1 μM, GlcCer 200 μM, 1 μL/side, or combination

Substance: Glucosylceramide [GlcCer]
- Kd [1]: 36 ± 2 nM
- PPARγ activity (dual-luciferase) [2]: increased
- expression of Adipoq and Leptin [3]: robustly upregulated
- expression of adipogenesis-related genes (Srebp-1c, Adrp, Fabp4, Fasn, Cd36) [3]: little or no effect
- time spent in the center area (OFT) ([4]; CRS mice vs vehicle, pioglitazone 1 μM, GlcCer 200 μM, 1 μL/side, or combination): significant increase
- stress-induced depression-like behaviors (overall) ([4]; CRS mice, administration of GlcCer, pioglitazone or combined): reverses
- immobility duration in the FST [4, 6]: decreased
- sucrose preference in the SPT [4, 6]: increased
- neuroinflammation and memory deficits [5]: alleviate
